According to PMC7972453, “The allosteric modulation of complement C5 by knob domain peptides” (eLife, 2021):
Read-outs that look alike come from different tables or passages of the source. Bridges are numbered along the chain shown (N, C = ends). Where no end group is shown, it is not given here.

How the values were obtained:
C3b deposition = C3b deposition ELISA (CP and AP); type: biochemical; conditions: CP (1% serum) and AP (5% serum) ELISA, anti-human C3d
Method: (§1) For the C3 and C9 ELISAs, microtiter plates (MaxiSorp; Nunc) were incubated overnight at 4°C with 50 µL of a solution of in 75 mM sodium carbonate (pH 9.6) containing either 2.5 µg/mL aggregated human IgG (Sigma-Aldrich, Gillingham, UK) for CP or 20 µg/mL zymosan (Sigma-Aldrich, Gillingham, UK) for AP. As a negative control, wells were coated with 1% (w/v) bovine serum albumin (BSA)/PBS. Microtiter plates were washed four times with 250 µL of wash buffer (50 mM Tris-HCl), 150 mM NaCl and 0.1% Tween 20 (pH 8) between each step of the procedure. Wells were blocked using 250 µL of 1% (w/v) BSA/PBS for 2 hr at room temperature. […] Complement activation was assessed through detection of deposited complement activation factors using specific antibodies against C3b (rat anti-human C3d HM2198, Hycult, Uden, The Netherlands) and C9 (goat anti-human C9, A226, Complement Technologies Tyler, TX) at a 1:1000 dilution. Bound primary antibodies were detected with […]-conjugated goat anti-rat (ab97057, Abcam, Cambridge, UK) or rabbit anti-goat (P0449, Agilent Dako, Santa Clara, CA) secondary antibodies at a 1:1000 dilution. Bound HRP-conjugated antibodies were detected using TMB One solution (Eco-TEK – manufactured by Bio-TEK, Winooski, VT) with absorbance measured at 450 nm.

[1] = test system: classical pathway mediated C9 deposition; assay: Inhibition of classical pathway mediated C9 deposition (ELISA); type: biochemical, human; conditions: CP C9 deposition; 1% serum; n=3; ND* = Not detected
Method: as §1, with “nm. […]” for “nm.”

human C5b-6 = human C5b-6 (Homo sapiens, UniProt P01031+P13671); assay: SPR single-cycle kinetics, binding to C5b-6; design: Upon cleavage of C5a, the remaining domains of the α-chain undergo a substantial conformational change; purchased Complement Technologies, Tyler, TX
Method: On a Biacore 8K (GE Healthcare, Amersham, UK), human C5b was immobilised on a CM5 chip (GE Healthcare, Amersham, UK). Flow cells were activated using a standard immobilisation protocol: EDC/NHS was mixed at 1:1 ratio (flow rate, 10 µL/min; contact time, 30 s). C5b, at 1 µg/mL, or C5b-6 (Complement Technologies, Tyler, TX), at 2 µg/mL, in pH 4.5 sodium acetate buffer, were immobilised on flow cell two only (flow rate, 10 µL/min; contact time, 420 s). Finally, ethanolamine was applied to both flow cells (flow rate, 10 µL/min; contact time, 420 s). A final immobilisation level of 500–700 RUs was obtained for C5b and 1000–1150 RUs were obtained for C5b-6. Single-cycle kinetics were measured using a seven-point, threefold serial dilution (spanning a range of 1 µM to 1.4 nM) in HBS-EP buffer (GE Healthcare, Amersham, UK). A high flow rate of 40 µL/min was used, with a contact time of 300 s and a dissociation time of 2700 s. Binding to the reference surface was subtracted, and the data were fitted to a single-site binding model using Biacore evaluation software. All sensorgrams were inspected for evidence of mass transport limitation using the flow rate-independent component of the mass transfer constant (tc).
Table 4.2. SPR single-cycle kinetics of knob domains binding to human C5b-6.

[2] = test system: alternative pathway mediated C5a release (complement C5); assay: Inhibition of alternative pathway mediated C5a release (ELISA); type: biochemical, human; conditions: AP C5a release; n=3 (K8: n=4); ND* = Not detected
Method: For the C5b ELISA, assays were run using the CP and AP Complement functional ELISA kits (Svar Life Science, Malmö, Sweden). For sample preparation, serum was diluted as per the respective protocol for the CP and AP assays. Serial dilutions of peptides were prepared and allowed to incubate with serum for 15 min at room temperature prior to plating.
For the C5a ELISA, assays were run using the Complement C5a Human ELISA Kit (Invitrogen, Renfrew, UK). For sample preparation, at the end of the 37°C incubation of the serum/peptide samples on the C5b ELISA plate, 50 µL of the diluted, activated serum was transferred to a C5a ELISA plate containing 50 µL/well of assay buffer. All subsequent experimental steps were performed as described in the protocol.
Table 1.4. Inhibition of alternative pathway mediated C5a release.
Data from n=3, unless otherwise stated

C5 activation by the AP = assay: Complement activation assays, alternative pathway (overall); type: biochemical; conditions: C5a release, C5b neo-epitope formation and C9 deposition ELISAs; human serum
Method: For functional characterisation of the peptides, we performed complement assays for CP and AP activation in human serum, assessing C5b neo-epitope formation and C5a release (schematically presented in Figure 1A, B), in combination with orthogonal ELISAs, measuring C3b and C9 deposition.
as §1, with “(BSA)/PBS.” for “(BSA)/PBS. Microtiter plates were washed four times with 250 µL of wash buffer (50 mM Tris-HCl), 150 mM NaCl and 0.1% Tween 20 (pH 8) between each step of the procedure. Wells were blocked using 250 µL of 1% (w/v) BSA/PBS for 2 hr at room temperature.”, “nm. […]” for “nm.”

human C5b-6, sequence (P01031 752-1676 limits assumed): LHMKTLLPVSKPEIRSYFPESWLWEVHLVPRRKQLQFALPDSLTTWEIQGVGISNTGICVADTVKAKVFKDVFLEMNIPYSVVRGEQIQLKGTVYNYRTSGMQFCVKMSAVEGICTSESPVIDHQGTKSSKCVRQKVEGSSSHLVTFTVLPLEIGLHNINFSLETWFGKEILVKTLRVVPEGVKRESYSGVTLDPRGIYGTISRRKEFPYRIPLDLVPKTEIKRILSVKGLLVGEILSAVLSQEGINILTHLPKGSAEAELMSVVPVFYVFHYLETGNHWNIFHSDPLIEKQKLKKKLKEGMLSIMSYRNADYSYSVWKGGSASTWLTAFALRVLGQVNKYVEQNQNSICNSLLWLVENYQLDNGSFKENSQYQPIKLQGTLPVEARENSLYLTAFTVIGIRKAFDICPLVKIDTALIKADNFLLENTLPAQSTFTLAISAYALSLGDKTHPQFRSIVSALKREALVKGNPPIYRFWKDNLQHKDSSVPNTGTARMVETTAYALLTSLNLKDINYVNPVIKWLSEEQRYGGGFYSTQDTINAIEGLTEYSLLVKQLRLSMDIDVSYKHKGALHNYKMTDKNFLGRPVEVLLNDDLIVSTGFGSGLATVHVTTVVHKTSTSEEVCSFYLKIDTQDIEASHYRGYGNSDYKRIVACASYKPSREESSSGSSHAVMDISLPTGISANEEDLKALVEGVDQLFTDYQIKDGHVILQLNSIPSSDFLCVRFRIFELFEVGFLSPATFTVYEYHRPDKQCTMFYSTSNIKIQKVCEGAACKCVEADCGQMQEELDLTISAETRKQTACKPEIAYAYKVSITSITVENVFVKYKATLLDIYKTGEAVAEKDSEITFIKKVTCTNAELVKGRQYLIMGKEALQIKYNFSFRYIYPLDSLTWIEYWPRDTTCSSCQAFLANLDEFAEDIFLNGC
human C5b-6, sequence (P01031 19-673 limits assumed): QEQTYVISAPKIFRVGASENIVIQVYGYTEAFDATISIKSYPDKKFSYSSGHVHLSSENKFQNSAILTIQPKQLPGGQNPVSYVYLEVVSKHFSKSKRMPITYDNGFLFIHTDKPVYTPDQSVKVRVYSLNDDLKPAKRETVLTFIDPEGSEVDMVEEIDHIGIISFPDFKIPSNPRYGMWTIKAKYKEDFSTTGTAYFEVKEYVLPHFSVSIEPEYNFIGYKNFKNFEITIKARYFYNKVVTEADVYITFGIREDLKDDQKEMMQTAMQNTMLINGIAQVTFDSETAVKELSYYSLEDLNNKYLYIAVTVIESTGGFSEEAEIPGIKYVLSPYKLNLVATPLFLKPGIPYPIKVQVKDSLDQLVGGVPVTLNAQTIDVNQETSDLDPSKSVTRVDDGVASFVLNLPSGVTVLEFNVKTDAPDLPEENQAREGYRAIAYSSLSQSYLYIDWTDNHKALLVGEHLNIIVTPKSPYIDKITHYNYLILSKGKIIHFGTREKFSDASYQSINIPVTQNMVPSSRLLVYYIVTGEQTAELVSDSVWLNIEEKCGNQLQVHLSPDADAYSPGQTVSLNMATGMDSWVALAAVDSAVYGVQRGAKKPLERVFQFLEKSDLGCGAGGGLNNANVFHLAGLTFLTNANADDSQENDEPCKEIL
human C5b-6, sequence (P13671 22-934 partner): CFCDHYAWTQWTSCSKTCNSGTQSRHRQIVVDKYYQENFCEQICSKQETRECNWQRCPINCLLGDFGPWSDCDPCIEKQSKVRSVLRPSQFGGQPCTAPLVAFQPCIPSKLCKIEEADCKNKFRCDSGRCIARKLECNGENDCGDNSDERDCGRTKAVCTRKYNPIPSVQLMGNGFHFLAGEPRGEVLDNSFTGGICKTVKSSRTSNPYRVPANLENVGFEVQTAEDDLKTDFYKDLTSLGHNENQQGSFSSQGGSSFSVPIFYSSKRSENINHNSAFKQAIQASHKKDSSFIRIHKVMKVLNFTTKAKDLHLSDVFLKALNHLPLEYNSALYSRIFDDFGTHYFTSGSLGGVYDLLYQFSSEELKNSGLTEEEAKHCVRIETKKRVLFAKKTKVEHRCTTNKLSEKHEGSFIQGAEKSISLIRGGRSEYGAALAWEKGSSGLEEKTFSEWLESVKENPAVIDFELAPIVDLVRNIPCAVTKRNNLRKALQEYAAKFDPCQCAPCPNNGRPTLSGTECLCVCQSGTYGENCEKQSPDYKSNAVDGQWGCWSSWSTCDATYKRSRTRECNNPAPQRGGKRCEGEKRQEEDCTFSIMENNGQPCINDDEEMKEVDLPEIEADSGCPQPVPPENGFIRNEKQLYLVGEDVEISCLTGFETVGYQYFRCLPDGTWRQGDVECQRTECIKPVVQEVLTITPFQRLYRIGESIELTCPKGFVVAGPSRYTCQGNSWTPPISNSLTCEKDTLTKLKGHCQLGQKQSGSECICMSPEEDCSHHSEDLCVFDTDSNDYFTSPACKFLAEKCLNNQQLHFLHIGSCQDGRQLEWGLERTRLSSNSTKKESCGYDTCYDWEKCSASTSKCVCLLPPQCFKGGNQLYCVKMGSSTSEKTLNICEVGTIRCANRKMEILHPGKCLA

SVCPDGFDWGYGCAAGSSRFCTRHDWCCYDERADSHTYGFCTGNRVENLYFQ (disulfide 3-28, 13-21, 27-41) [K8]
effect on C3b deposition (C3b deposition): no effect on C3b deposition was detected
Average Emax [1]: 63.4%
koff (human C5b-6; read-out: mean koff, Biacore 8K, HBS-EP, summary of n=4): 0.000295 s⁻¹
kon (human C5b-6; read-out: mean kon, Biacore 8K, HBS-EP, summary of n=4): 12500 M⁻¹ s⁻¹
Stoichiometric ratio (human C5b-6; replicate n=1): 0.3
koff (human C5b-6; replicate n=1): 0.000282 s⁻¹
kon (human C5b-6; replicate n=1): 10100 M⁻¹ s⁻¹
Stoichiometric ratio (human C5b-6; replicate n=2): 0.3
koff (human C5b-6; replicate n=2): 0.000384 s⁻¹
kon (human C5b-6; replicate n=2): 12100 M⁻¹ s⁻¹
Stoichiometric ratio (human C5b-6; replicate n=3): 0.5
koff (human C5b-6; replicate n=3): 0.00024 s⁻¹
Stoichiometric ratio (human C5b-6; replicate n=4): 0.3
koff (human C5b-6; replicate n=4): 0.000277 s⁻¹
kon (human C5b-6; replicate n=4): 15600 M⁻¹ s⁻¹
Mean stoichiometric ratio (human C5b-6; summary of n=4): 0.4
Average Emax [2]: 71.8%
inhibition of C5 activation, AP assays (in words) (C5 activation by the AP): partially inhibiting both the AP and CP
